According to paper PMC3193285 (ACS Medicinal Chemistry Letters, 2011):
≈ marks a conversion by molar mass, not a printed value. Where two headings read alike, the source gives them in different places.

How the values were obtained:
[1] = system: TNF-α; experiment: TNF-α-induced NF-κB activation luciferase reporter counterscreen; format: cell-based; conditions: Homo sapiens
[2] = system: NF-κB activation via doxorubicin-induced pathway; experiment: NF-κB selectivity assay, HEK 293-T cells, doxorubicin induction; format: cell-based, human
[3] = system: NF-κB activation via PMA/ionomycin; experiment: NF-κB selectivity assay, HEK 293-T cells, PMA/ionomycin induction; format: cell-based, human
[4] = Aqueous kinetic solubility; format: physicochemical; conditions: aqueous solution, pH 6.2
[5] = Plasma protein binding, human plasma; format: in vitro ADME
[6] = Plasma protein binding, mouse plasma; format: in vitro ADME
[7] = Plasma stability, human plasma; format: in vitro ADME; conditions: Plasma/PBS, compound at 1 μM, 3 h
[8] = Plasma stability, mouse plasma; format: in vitro ADME; conditions: Plasma/PBS, compound at 1 μM, 3 h
[9] = Metabolic stability in human hepatic microsomes; format: in vitro ADME; conditions: percent remaining at 1 h
[10] = Metabolic stability in mouse hepatic microsomes; format: in vitro ADME; conditions: percent remaining at 1 h
[11] = molecular target: T1, CFLT3 (Fms-like tyrosine kinase) (Homo sapiens, UniProt P36888); experiment: Ambit KinomeScreen, FLT3; conditions: 10 μM
T1 sequence (P36888 27-993): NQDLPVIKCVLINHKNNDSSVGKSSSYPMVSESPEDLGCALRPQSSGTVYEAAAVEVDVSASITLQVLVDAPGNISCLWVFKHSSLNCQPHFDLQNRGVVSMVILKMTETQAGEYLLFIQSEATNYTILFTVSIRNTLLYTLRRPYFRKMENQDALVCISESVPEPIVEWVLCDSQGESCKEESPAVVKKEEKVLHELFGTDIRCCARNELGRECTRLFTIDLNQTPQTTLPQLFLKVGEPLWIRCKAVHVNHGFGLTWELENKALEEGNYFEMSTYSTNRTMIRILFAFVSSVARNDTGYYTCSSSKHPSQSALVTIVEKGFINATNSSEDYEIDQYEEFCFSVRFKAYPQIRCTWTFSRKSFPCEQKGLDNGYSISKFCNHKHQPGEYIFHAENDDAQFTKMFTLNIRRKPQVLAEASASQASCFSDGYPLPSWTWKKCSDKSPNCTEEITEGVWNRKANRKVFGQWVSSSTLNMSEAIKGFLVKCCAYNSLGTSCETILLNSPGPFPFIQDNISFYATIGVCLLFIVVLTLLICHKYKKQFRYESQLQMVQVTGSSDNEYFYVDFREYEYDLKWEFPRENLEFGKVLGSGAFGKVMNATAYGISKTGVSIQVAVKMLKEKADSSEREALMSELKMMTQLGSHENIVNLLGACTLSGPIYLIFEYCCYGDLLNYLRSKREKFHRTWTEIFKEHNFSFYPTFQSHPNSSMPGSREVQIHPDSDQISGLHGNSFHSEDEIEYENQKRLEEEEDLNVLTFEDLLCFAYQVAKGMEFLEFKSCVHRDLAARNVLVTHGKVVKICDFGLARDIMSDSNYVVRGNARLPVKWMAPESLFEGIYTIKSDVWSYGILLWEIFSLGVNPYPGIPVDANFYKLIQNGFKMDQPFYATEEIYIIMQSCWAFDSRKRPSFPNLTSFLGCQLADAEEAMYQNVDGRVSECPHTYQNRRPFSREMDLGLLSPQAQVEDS

[12] = system: 443 kinases; experiment: Ambit KinomeScreen panel; conditions: 10 μM
[13] = molecular target: RIOK2 (right open reading frame) (Homo sapiens, UniProt Q9BVS4); experiment: Ambit KinomeScreen, RIOK2; conditions: 10 μM
[14] = system: NCI 60 human tumor cell line
[15] = read-out: TNF-α (NOD1-dependent) IC50

RIOK2 (right open reading frame), sequence (Q9BVS4 whole entry, species assumed): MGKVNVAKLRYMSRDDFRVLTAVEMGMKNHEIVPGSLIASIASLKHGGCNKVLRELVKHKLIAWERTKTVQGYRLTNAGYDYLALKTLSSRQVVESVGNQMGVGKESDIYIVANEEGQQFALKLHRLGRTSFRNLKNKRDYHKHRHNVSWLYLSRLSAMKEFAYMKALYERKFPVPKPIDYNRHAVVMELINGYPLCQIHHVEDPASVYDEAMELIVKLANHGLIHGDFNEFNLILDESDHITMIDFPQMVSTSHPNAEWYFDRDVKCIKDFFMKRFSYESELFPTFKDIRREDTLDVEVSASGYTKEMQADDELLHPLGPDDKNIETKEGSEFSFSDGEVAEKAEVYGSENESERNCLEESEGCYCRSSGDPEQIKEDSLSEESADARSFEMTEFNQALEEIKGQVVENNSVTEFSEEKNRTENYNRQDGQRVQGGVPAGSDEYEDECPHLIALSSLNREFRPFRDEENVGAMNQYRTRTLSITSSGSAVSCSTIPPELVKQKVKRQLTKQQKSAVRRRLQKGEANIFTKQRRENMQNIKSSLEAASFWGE

Structure (SMILES)	IC50 ([1]; read-out: TNF-α IC50) [µM]	IC50 [1, 15] [µM]	other results
CC(=O)c1ccc(N2CCN(S(=O)(=O)c3ccc4c(c3)CCN4C(=O)C3CC3)CC2)cc1 [20a]	> 20	–	–
Cc1ccc(S(=O)(=O)n2c(N)nc3cc(C)c(C)cc32)cc1 [9c]	–	> 20	–
CC(=O)N1CCc2cc(S(=O)(=O)N3CCN(c4ccc(Cl)cc4)CC3)ccc21 [27a]	> 20	–	–
O=C(C1CC1)N1CCc2cc(S(=O)(=O)N3CCN(c4ccc(Cl)cc4)CC3)ccc21 [18a]	> 20	–	–
Nc1nc2ccccc2n1S(=O)(=O)c1ccccc1 [4c]	–	> 20	–
Nc1nc2ccccc2n1Cc1ccc(Cl)cc1 [10c]	–	> 20	–
CCC(=O)N1CCc2cc(S(=O)(=O)N3CCN(c4ccc([N+](=O)[O-])cc4)CC3)ccc21 [23a]	> 20	–	–
Cc1ccc(S(=O)(=O)n2cnc3ccccc32)cc1 [6c]	–	> 20	–
CC(=O)N1CCc2cc(S(=O)(=O)N3CCN(c4ccc([N+](=O)[O-])cc4)CC3)ccc21 [26a]	> 20	–	–
Cc1ccc(S(=O)(=O)n2c(S)nc3ccc(C)cc32)cc1 [8c]	–	> 20	–
COc1ccc(C(=O)Cn2c(N)nc3ccccc32)cc1 [14c]	–	> 20	–
O=C(C1CC1)N1CCc2cc(S(=O)(=O)N3CCN(c4ccc([N+](=O)[O-])cc4)CC3)ccc21 [21a]	> 20	–	–
N#Cc1ccc(N2CCN(S(=O)(=O)c3ccc4c(c3)CCN4C(=O)C3CC3)CC2)cc1 [19a]	> 20	–	–
CCC(=O)N1CCc2cc(S(=O)(=O)N3CCN(c4ccc(C(C)=O)cc4)CC3)ccc21 [22a]	> 20	–	–
Cc1ccc(S(=O)(=O)n2c(N)nc3ccccc32)cc1 [1c]	–	> 20	inhibition of NF-κB activation via doxorubicin-induced pathway [2]: did not inhibit; inhibition of NF-κB activation via PMA/ionomycin [3]: did not inhibit; solubility at 18 h [4]: 2 µg/mL (≈ 6.96 µM); plasma protein binding ([5]; 1 μM): 97.5 % bound; plasma protein binding ([5]; 10 μM): 97.7 % bound; plasma protein binding ([6]; 1 μM): 95.0 % bound; plasma protein binding ([6]; 10 μM): 95.5 % bound; plasma stability [7]: 100/100 % remaining; plasma stability [8]: 100/100 % remaining; microsome stability [9]: 41.8 % remaining; microsome stability [10]: 0.8 % remaining; Inhibitory activity (reported as % control), CFLT3 [11]: 27 % C; activity against 443 kinases [12]: little activity; Inhibitory activity (reported as % control), RIOK2 [13]: 6 % C; cytotoxicity in NCI 60 screen [14]: noncytotoxic
Nc1nc2ccccc2n1CCC(=O)c1ccc(Cl)cc1 [13c]	–	> 20	–
CC(=O)c1ccc(N2CCN(S(=O)(=O)c3ccc4c(c3)CC(C)N4C(=O)C3CC3)CC2)cc1 (stereo not shown) [7a]	> 20	–	–
CC(=O)c1ccc(N2CCN(S(=O)(=O)c3ccc4c(c3)CCN4C(C)=O)CC2)cc1 [25a]	> 20	–	–
Nc1nc2ccccc2n1C(=O)Cc1ccccc1 [15c]	–	> 20	–
